From US6897209B2, “Labelled factor XIIIa substrates” (GE Healthcare Limited, priority 1997, dated 2005)

Experiments:
human plasma clots [1] = target: T1, human plasma clots (Homo sapiens, UniProt P00488); assay: Incorporation into human plasma clots (in vitro plasma clot assay); assay type: biochemical; conditions: for % specific uptake*: % retained with thrombin − % retained no thrombin; for % retained in plasma clot assay (with thrombin): human plasma with thrombin and calcium chloride, 60 minutes, ca. 20° C.
T1 construct: Factor XIII is transformed into its active form Factor XIIIa by thrombin in the presence of calcium ions; from tissue; host or cells: human plasma, clotted in vitro with thrombin and calcium chloride
T1 sequence (P00488 39-732): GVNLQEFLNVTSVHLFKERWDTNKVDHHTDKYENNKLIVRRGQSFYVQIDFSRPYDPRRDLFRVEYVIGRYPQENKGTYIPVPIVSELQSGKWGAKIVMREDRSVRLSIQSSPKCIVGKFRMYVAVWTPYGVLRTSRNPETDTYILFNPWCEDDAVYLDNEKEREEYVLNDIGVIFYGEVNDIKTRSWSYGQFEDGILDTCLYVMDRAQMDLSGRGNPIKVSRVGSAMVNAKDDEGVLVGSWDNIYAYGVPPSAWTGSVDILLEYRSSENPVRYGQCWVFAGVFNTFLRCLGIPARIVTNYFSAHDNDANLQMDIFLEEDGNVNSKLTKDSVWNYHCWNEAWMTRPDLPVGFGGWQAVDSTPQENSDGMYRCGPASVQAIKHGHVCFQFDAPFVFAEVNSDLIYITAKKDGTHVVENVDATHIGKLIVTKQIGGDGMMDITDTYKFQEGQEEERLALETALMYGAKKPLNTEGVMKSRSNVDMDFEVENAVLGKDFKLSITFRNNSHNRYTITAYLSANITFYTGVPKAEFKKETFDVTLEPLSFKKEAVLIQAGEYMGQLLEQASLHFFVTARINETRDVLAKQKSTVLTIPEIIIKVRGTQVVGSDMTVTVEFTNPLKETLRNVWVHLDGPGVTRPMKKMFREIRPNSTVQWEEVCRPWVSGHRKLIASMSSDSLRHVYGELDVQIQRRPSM
Description: (§1) Incorporation of radiolabelled substrates into fibrin was investigated by induction of an in vitro human plasma clot in the following manner. To a siliconised 5 ml glass vial was added, (a) 800 μl of Tris(hydroxymethyl)aminomethane buffered saline pH 7.5 containing calcium chloride (50 mM Tris, 150 mM sodium chloride, 4 mM calcium chloride.), (b) 40 μl of physiological salt solution containing 100 units of thrombin per ml, (c) 400 μl of human plasma containing the radiolabelled substrate at a concentration of typically 10 kBq/ml. To aid induction of clot a roughened glass rod was added to the reaction vial. Control vials were prepared similarly but with the omission of thrombin and calcium chloride.
(§2) The proportion of total radioactivity was calculated by counting in suitable detection apparatus.
(§3) The fraction of radioactivity retained on the filter, after subtraction of the non-specific binding determined from the control, is a measure of incorporation into the filtered clots.

human plasma clots [2] = assay: as above; assay type: biochemical; conditions: control vials without thrombin and calcium chloride, 60 minutes
Description: as §1, §2, §3

Factor XIIIa = target: T2, Factor XIIIa (Homo sapiens, UniProt P00488); assay: Factor XIIIa dependency of incorporation (dimethylcasein uptake, normal vs Factor XIII deficient plasma); assay type: biochemical; conditions: 1 KBq/ml, 60 minutes; uptake in normal plasma minus Factor XIII deficient plasma
T2 construct: Factor XIII is transformed into its active form Factor XIIIa by thrombin in the presence of calcium ions; from tissue; host or cells: human plasma
T2 sequence (P00488 39-732 limits assumed): T1 sequence (P00488 39-732)
Description: The assay was changed by replacing the mercaptoethanol with aprotinin at a final concentration of 2 μg/ml, and dimethylcasein (DMC) was used instead of casein.

[3] = system: clots induced in rat inferior vena cava; assay: Incorporation into clots induced in a rat model (rat inferior vena cava model); assay type: in vivo; conditions: rat IVC model
Description: The rats (Male Wistar, 250-350 g) were anaesthetised with 15% urethane. After laparotomy, the vena cava was isolated and freed of surrounding fat tissue. […] The average weight of the clots formed in this model was around 27 mg, n=32, (5-50 mg range). The so compounds were injected 5 min post-induction. After 60 min the animals were sacrificed and the clot removed, weighed and counted. Other tissues e.g. blood, lung, heart, were also dissected and counted. The uptake of tracer into the clot was determined as the relative concentration (cpm/g of clot by dose/g animal ) and clot to background tissue.

[4] = compound injected 5 min post-induction, clot removed after 60 min

With `CC(=NO)C(C)(C)NCC(C)(CNC(=O)[C@@H](CO)NC(=O)[C@@H](CO)NC(=O)[C@@H](CO)NC(=O)c1ccc(S(=O)(=O)NCCCCCN)cc1)CNC(C)(C)C(C)=NO` (stereo partly drawn) [Compound 10, 3,3,6,9,9-pentamethyl-6-N-[N-(4-N-(5aminopentyl)amidosulphonyl)benzoyl-D-serine-D-serine-D-serine]aminomethyl-4,8-diazaundecane-2,10-dione dioxime] as the compound, how does the “% specific uptake*” value (human plasma clots [1]) read?
Its value is 4.7%.

What about the “% retained in plasma clot assay (with thrombin)” value (“% retained … (with thrombin)” below) (human plasma clots [1]) of the same compound?
Its value is 5%.

What about the “% retained in plasma clot assay (no thrombin)” value (from here on “% retained … (no thrombin)”) (human plasma clots [2]) of the same compound?
Its value is 0.3%.

What about the “% specific DMC casein uptake” value (Factor XIIIa) of the same compound?
The value was 6%.

`CC(=NO)C(C)(C)NCC(C)(CNC(=O)[C@@H](Cc1ccccc1)NC(=O)CCCCCN)CNC(C)(C)C(C)=NO` (stereo partly drawn) [Compound 5, 3,3,6,9,9-pentamethyl-6-N-[N-(6-aminohexanoyl)-D-phenylalanyl]aminomethyl-4,8-diazaundecane-2,10-dione dioxime] was tested. Which “% specific uptake*” value (human plasma clots [1]) did it give?
The value was 4.1%.

And the “% retained … (with thrombin)” value (human plasma clots [1])?
Its value is 6%.

What about the “% retained … (no thrombin)” value (human plasma clots [2]) of the same compound?
Its value is 1.9%.

And the “% specific DMC casein uptake” value (Factor XIIIa)?
The value was 10%.

With `CC(=NO)C(C)(C)NCC(C)(CNC(=O)c1ccc(NC(=O)CCCCCN)cc1)CNC(C)(C)C(C)=NO` (stereo not shown) [Compound 6, 3,3,6,9,9-pentamethyl-6-N-[4-N-(6aminohexanoyl)aminobenzoyl]aminomethyl-4,8-diazaundecane-2.10-dione dioxime] as the compound, how does the “% specific uptake*” value (human plasma clots [1]) read?
The value was 1.5%.

And the “% retained … (with thrombin)” value (human plasma clots [1])?
Its value is 2%.

And the “% retained … (no thrombin)” value (human plasma clots [2])?
The value was 0.5%.

And the “% specific DMC casein uptake” value (Factor XIIIa)?
The value was 13%.

`CC(=NO)C(C)(C)NCC(C)(CN)CNC(C)(C)C(C)=NO` (stereo not shown) [Compound 2, 6-aminomethyl-3,3,6,9,9-pentamethyl-4,8-diazaundecane-2, 1 0-dione dioxime] was tested. Which “% specific uptake*” value (human plasma clots [1]) did it give?
The value was 1.7%.

And the “% retained … (with thrombin)” value (human plasma clots [1])?
Its value is 2%.

What about the “% retained … (no thrombin)” value (human plasma clots [2]) of the same compound?
The value was 0.3%.

Which results are given for `CC(=NO)C(C)(C)NCC(C)(CNC(=O)N1CCN(CNC(=O)c2ccc(S(=O)(=O)NCCCCCN)cc2)CC1)CNC(C)(C)C(C)=NO` (stereo not shown) [Compound 11, 3,3,6,9,9-pentamethyl-6-N-[4-N-{4-(N-(5-aminopentyl)amidosulphonyl)benzoyl}aminomethylpiperazinylcarbonyl]aminomethyl-4,8-diazaundecane-2,10-dione dioxime]?
% specific uptake* (human plasma clots [1]): 12.8%; % retained in plasma clot assay (with thrombin) (human plasma clots [1]): 16%; % retained in plasma clot assay (no thrombin) (human plasma clots [2]): 3.2%; % specific DMC casein uptake (Factor XIIIa): 24%

With `CC(=O)SCC(=O)NCC(=O)NCC(=O)NCC(=O)NCCCNC(=O)c1ccc(S(=O)(=O)NCCCCCN)cc1` [Compound 23, N-[S-acetyl-mercaptoacatylglycylglycylglycyl)-N′-(4-N-(5-aminopentyl)amidosulphonyl)benzoyl propane-1,3-diamine] as the compound, how does the “% specific uptake*” value (human plasma clots [1]) read?
Its value is 14.2%.

And the “% retained … (with thrombin)” value (human plasma clots [1])?
The value was 16%.

And the “% retained … (no thrombin)” value (human plasma clots [2])?
The value was 0.8%.

And the “% specific DMC casein uptake” value (Factor XIIIa)?
The value was 24.5%.

For `CC(=NO)C(C)(C)NCC(C)(CNC(=O)c1ccc(S(=O)(=O)NCCSCCN)cc1)CNC(C)(C)C(C)=NO` (stereo not shown) [Compound 9, 3,3,6,9,9-pentamethyl-6-(4-(N-[(S-aminoethyl)thioethyl]amidosulphonyl)benzamidomethyl)4,8-diazaundecane-2,10-dione dioxime], which “% specific uptake*” value (human plasma clots [1]) is on record?
Its value is 15.5%.

What about the “% retained … (with thrombin)” value (human plasma clots [1]) of the same compound?
Its value is 20%.

And the “% retained … (no thrombin)” value (human plasma clots [2])?
Its value is 4.5%.

And the “% specific DMC casein uptake” value (Factor XIIIa)?
Its value is 29%.

“3,3,6,9,9-pentamethyl-6-N-[α-N-(4-N-(5-aminopentyl)amidosulphonyl)benzoyl)amino-polethyleneglycol)-ω-carbonyl]aminomethyl-4,8-diazaundecane-2,10-dione dioxime [Compound 14]” was tested. Which “% specific uptake*” value (human plasma clots [1]) did it give?
The value was 27.8%.

What about the “% retained … (with thrombin)” value (human plasma clots [1]) of the same compound?
Its value is 35%.

And the “% retained … (no thrombin)” value (human plasma clots [2])?
The value was 7.2%.

What about the Clot/Blood ([3]; 60 min) of the same compound?
Its Clot/Blood is 1.3.

And the Clot/Heart ([3]; 60 min)?
The Clot/Heart was 2.8.

And the Clot/Liver ([3]; 60 min)?
The Clot/Liver was 2.6.

What about the Clot/Lung ([3]; 60 min) of the same compound?
Its Clot/Lung is 1.5.

And the “% ID/g (clot uptake)” value [3, 4]?
Its value is 0.18 ± 0.03 % ID/g.

And the “Relative conc (cpm/g of clot by dose/g animal)” value [3, 4]?
The value was 0.54 ± 0.11.

“1-(4-(N-(5-aminopentyl)-amidosulphonyl)benzyl)-1,4,8,11-tetraazacyclotetradecane [Compound 20]” was tested. Which “% retained … (no thrombin)” value (human plasma clots [2]) did it give?
The value was 0.6%.
